The values below are quoted from earlier work in patent publication US11478001B2, “Methods of administering a pre-operative carbohydrate-rich beverage composition” (ClearFast Inc., priority 2014, dated 2022).

The conditions of the data set: short-term oral administration.

In the case of `NC(=O)NCCC[C@H](N)C(=O)O` [L-citrulline], the safety and tolerability result is “safe and well tolerated”.
